Assay results from US20260102388A1 (priority 2022, published 2026).

Test system: SD rats
Test: Effect of compound implant of naltrexone on spontaneous activity
Conditions: implants 3 tablets/animal (diazepam 2 mg/kg), 60 min recording, X ± SEM
Method: Test animals: SPF-grade Sprague-Dawley (SD) rats, weighing 200±20 g, and they were fed adaptively.
Animal grouping and administration: Animals were divided into 8 groups with 12 animals in each group, half male and half female. In the experiment, animals were divided into positive control group (diazepam group, with a dose of 2 mg/kg), negative control group (normal saline), Example 1 group, Example 2 group, Comparative Example 2 group, Comparative Example 4 group, Comparative Example 5 group (dose: 3 tablets/animal), and fasten for 12 h before administration. The dosage volume for rats was 10 mL/kg.
The experiment was divided into three periods: adaptation period, pre-testing period and post-administration testing period. […]
Open field adaptation: After environmental adaptation, single rat/mouse was put into a spontaneous activity box for 60 min to adapt to the experiment box, and the spontaneous activity within 60 min was recorded, the general adaptation was 2-3 days to reduce the impact of environmental stimulation.
Baseline test: Single rat/mouse was put into a spontaneous activity box for 40 min to adapt to the experimental box, and spontaneous activity within 40 min was recorded, then divided equally to groups according to basic spontaneous activity. […]
Data were expressed as Mean±SEM. […]

CN1C(=O)CN=C(c2ccccc2)c2cc(Cl)ccc21 [Positive control group, diazepam]
total distance of activity: 9698.94 ± 902.16 mm
